± gives the standard deviation of the averaged measurements.
Columns and labels:
Experiment in all cases: level (log10 ratio to DMSO vehicle control); higher = higher biomarker level / cell amount than vehicle control
[1] = compound: C=C(C)C(=O)OCCC(F)(F)C(F)(F)C(F)(F)C(F)(F)C(F)(F)C(F)(F)C(F)(F)C(F)(F)F [8:2 Fluorotelomer methacrylate] (in DMSO)
Method: (§1)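 BioMAP Diversity Plus panel of 12 human primary cell co-culture systems (3C, 4H, LPS, SAg, BT, BF4T, BE3C, CASM3C, HDF3CGF, KF3CT, MyoF, Mphg). Compounds were added 1 h before stimulation and left for 24 h (MyoF 48 h; BT 72 h for soluble read-outs or 6 d for IgG). Biomarkers were read by ELISA, cytotoxicity by SRB, PBMC viability and proliferation by Alamar Blue. Each well value was divided by the mean of 8 DMSO control wells on the same plate and log10 transformed; duplicate blinded samples were tested at 4 concentrations.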

[2] = compound: O=C(O)C(F)(F)C(F)(F)C(F)(F)C(F)(F)C(F)(F)C(F)(F)C(F)(F)C(F)(F)F [Perfluorononanoic acid] (in DMSO)
Method: as §1

[3] = compound: O=C(O)C(F)(F)C(F)(F)C(F)(F)OC(F)(F)F [Perfluoro(4-methoxybutanoic) acid] (in DMSO)
Method: as §1

[4] = compound: O=C(O)C(F)(OC(F)(F)C(F)(F)C(F)(F)F)C(F)(F)F [Ammonium perfluoro-2-methyl-3-oxahexanoate] (in Water)
Method: as §1

[5] = compound: O=C(O)C(F)(OC(F)(F)C(F)(OC(F)(F)C(F)(OC(F)(F)C(F)(F)C(F)(F)F)C(F)(F)F)C(F)(F)F)C(F)(F)F [Perfluoro-(2,5,8-trimethyl-3,6,9-trioxadodecanoic)acid] (in DMSO)
Method: as §1

[6] = compound: O=S(=O)(O)C(F)(F)C(F)(F)C(F)(F)C(F)(F)C(F)(F)C(F)(F)C(F)(F)F [Perfluoroheptanesulfonic acid] (in DMSO)
Method: as §1

[7] = compound: O=S(=O)(O)C(F)(F)C(F)(F)OC(F)(F)C(F)(F)F [Perfluoro(2-ethoxyethane)sulfonic acid] (in DMSO)
Method: as §1

Test System	level (log10) ([1]; 6700 nM)	level (log10) ([1]; 20000 nM)	level (log10) ([2]; 6700 nM)	level (log10) ([2]; 20000 nM)	level (log10) ([3]; 6700 nM)	level (log10) ([3]; 20000 nM)	level (log10) ([3]; 60000 nM)	level (log10) ([4]; 6700 nM)	level (log10) ([4]; 20000 nM)	level (log10) ([4]; 60000 nM)	level (log10) ([5]; 1100 nM)	level (log10) ([5]; 3300 nM)	level (log10) ([5]; 10000 nM)	level (log10) ([6]; 1500 nM)	level (log10) ([6]; 4400 nM)	level (log10) ([6]; 13000 nM)	level (log10) ([6]; 40000 nM)	level (log10) ([7]; 6700 nM)	level (log10) ([7]; 20000 nM)	level (log10) ([7]; 60000 nM)
HDF3CGF:PAI-I	-0.0305 ± 0.052	-0.0635 ± 0.022	0.037 ± 0.062	0.0765 ± 0.064	-0.009 ± 0.0042	-0.0135 ± 0.0078	-0.001 ± 0.014	-0.0825 ± 0.052	-0.0995 ± 0.013	-0.051 ± 0.054	0.049 ± 0.078	0.056 ± 0.076	0.062 ± 0.047	0.02 ± 0.073	0.0135 ± 0.049	-0.0315 ± 0.046	-0.0325 ± 0.011	0.025 ± 0.0014	-0.003 ± 0.0071	-0.021 ± 0.013
HDF3CGF:Proliferation 72hr	-0.0395 ± 0.028	-0.043 ± 0.069	0.143 ± 0.036	-0.182 ± 0.24	-0.003 ± 0.047	0.0295 ± 0.0021	-0.003 ± 0.031	0.0575 ± 0.057	0.0635 ± 0.066	-0.0255 ± 0.056	-0.0205 ± 0.011	0.038 ± 0.0099	0.0395 ± 0.028	-0.042 ± 0.088	-0.02 ± 0.031	0.076 ± 0.021	0.107 ± 0.0042	-0.0225 ± 0.021	0.004 ± 0.0042	-0.067 ± 0.03
HDF3CGF:SRB	-0.021 ± 0.055	-0.0015 ± 0.046	0.014 ± 0.0014	-0.0155 ± 0.026	0.006 ± 0.0071	0.011 ± 0.047	0.0125 ± 0.04	-0.033 ± 0.02	-0.0325 ± 0.0021	-0.0175 ± 0.011	-0.009 ± 0.023	0.0075 ± 0.011	0.027 ± 0.0071	-0.042 ± 0.028	-0.045 ± 0.011	-0.0065 ± 0.015	0.035 ± 0.1	-0.02 ± 0.0085	-0.017 ± 0.013	0.0085 ± 0.1
HDF3CGF:TIMP-1	-0.0115 ± 0.036	-0.0375 ± 0.074	-0.0225 ± 0.026	-0.039 ± 0.03	-0.0005 ± 0.035	0.0105 ± 0.067	0.0195 ± 0.042	0.025 ± 0.0028	0.014 ± 0.024	-0.0135 ± 0.0064	-0.0095 ± 0.04	0.003 ± 0.03	0.0065 ± 0.011	-0.004 ± 0.013	-0.001 ± 0.071	-0.002 ± 0.045	0.012 ± 0.1	0.0415 ± 0.067	0.048 ± 0.04	0.0955 ± 0.071
HDF3CGF:TIMP-2	-0.001 ± 0.013	-0.0395 ± 0.012	0.0105 ± 0.033	0.0805 ± 0.026	0.019 ± 0.025	0.029 ± 0.055	0.005 ± 0.057	0.0405 ± 0.07	0.0435 ± 0.013	-0.0185 ± 0.079	0.011 ± 0.0042	-0.0035 ± 0.0064	-0.013 ± 0.047	-0.0185 ± 0.0064	-0.0395 ± 0.029	-0.0115 ± 0.028	-0.045 ± 0.0014	-0.011 ± 0.0099	-0.0305 ± 0.015	0.02 ± 0.059
KF3CT:CCL2/MCP-1	-0.0235 ± 0.00071	-0.008 ± 0.033	-0.0975 ± 0.012	-0.157 ± 0.03	-0.006 ± 0.011	0.0105 ± 0.0021	0.0375 ± 0.07	0.086 ± 0.0057	0.088 ± 0.023	0.0775 ± 0.018	-0.017 ± 0.0099	-0.049 ± 0.025	0.011 ± 0.0099	-0.0115 ± 0.022	-0.011 ± 0.011	0.0015 ± 0.0021	0.0125 ± 0.022	-0.0025 ± 0.013	-0.002 ± 0.016	0.0115 ± 0.032
KF3CT:CD54/ICAM-1	-0.017 ± 0.013	0.004 ± 0.021	-0.0235 ± 0.013	-0.0455 ± 0.037	-0.005 ± 0.024	-0.017	-0.002 ± 0.013	0.022 ± 0.0099	0.029 ± 0.0071	0.017 ± 0.0057	0.004 ± 0.0042	-0.0025 ± 0.0064	0.013 ± 0.013	-0.013 ± 0.0085	0.001 ± 0.0099	-0.0085 ± 0.0078	0.0005 ± 0.0078	-0.002 ± 0.0099	-0.0275 ± 0.0064	-0.0165 ± 0.00071
KF3CT:CXCL8/IL-8	-0.013 ± 0.0071	-0.0275 ± 0.015	-0.0045 ± 0.016	0.013 ± 0.028	0.006 ± 0.017	0.012 ± 0.0085	0.014 ± 0.0099	0.0175 ± 0.036	0.0135 ± 0.00071	0.0165 ± 0.0092	-0.004 ± 0.0099	-0.01 ± 0.035	0.0175 ± 0.056	0.001 ± 0.014	-0.0095 ± 0.03	0 ± 0.03	0.0065 ± 0.022	0.0305 ± 0.016	0.0045 ± 0.022	0.036 ± 0.016
KF3CT:CXCL9/MIG	-0.0035 ± 0.0092	0.004 ± 0.0014	-0.006 ± 0.027	-0.007 ± 0.0042	0.0195 ± 0.0021	0.0075 ± 0.0092	0.016 ± 0.018	-0.007 ± 0.011	0.0025 ± 0.00071	0.0005 ± 0.0021	0.0045 ± 0.012	-0.002 ± 0.0085	0.0045 ± 0.0021	-0.005 ± 0.0071	-0.006 ± 0.0099	-0.005 ± 0.0028	0.014 ± 0.0042	0.0105 ± 0.0064	-0.0015 ± 0.012	0.0155 ± 0.0021
KF3CT:CXCL10/IP-10	-0.0125 ± 0.0035	-0.011 ± 0.0028	-0.016 ± 0.018	-0.0085 ± 0.021	0.002 ± 0.011	-0.0025 ± 0.0035	0.006 ± 0.0099	-0.017 ± 0.0085	0.004 ± 0.0057	0.005 ± 0.0042	-0.0005 ± 0.0021	0.0035 ± 0.0078	0.0025 ± 0.011	0.006 ± 0.0014	-0.0045 ± 0.00071	-0.005 ± 0.0042	-0.014 ± 0.0028	0.0025 ± 0.013	-0.0075 ± 0.011	-0.009
KF3CT:IL-1alpha	-0.0145 ± 0.036	-0.028 ± 0.031	-0.0365 ± 0.053	-0.105 ± 0.043	-0.003 ± 0.0099	-0.015 ± 0.027	0 ± 0.021	-0.001 ± 0.0071	0.011 ± 0.0014	-0.0355 ± 0.044	-0.0015 ± 0.005	-0.0195 ± 0.012	0.006 ± 0.0028	-0.0015 ± 0.0035	0.013 ± 0.0071	0 ± 0.0028	0.0095 ± 0.013	0.0005 ± 0.0064	-0.013 ± 0.025	0.0045 ± 0.05
KF3CT:MMP-9	-0.003 ± 0.023	-0.014 ± 0.018	-0.0575 ± 0.053	-0.097 ± 0.034	0.001 ± 0.0057	0.0055 ± 0.0092	0.0205 ± 0.013	-0.008 ± 0.011	0.0415 ± 0.026	0.0695 ± 0.0035	-0.0035 ± 0.00071	-0.022 ± 0.044	-0.0125 ± 0.016	0.0045 ± 0.025	-0.002 ± 0.0042	-0.01 ± 0.0042	0.0345 ± 0.013	0.009 ± 0.0085	0.036 ± 0.016	0.0515 ± 0.00071
KF3CT:PAI-I	-0.022 ± 0.037	-0.015 ± 0.013	0.065 ± 0.011	-0.0095 ± 0.032	-0.0015 ± 0.005	-0.0115 ± 0.011	-0.004 ± 0.018	-0.0455 ± 0.012	-0.0695 ± 0.0078	-0.054 ± 0.02	-0.0025 ± 0.0035	-0.018 ± 0.0071	0.006 ± 0.0099	0.001 ± 0.028	0.002 ± 0.035	-0.01 ± 0.034	-0.034 ± 0.0099	-0.01	-0.0145 ± 0.0078	-0.009 ± 0.013

— the supplement of paper PMC10331698
